Test [1] deals with IFNα signaling through pSTAT1 in TF1 cells. Description: Inhibition of IFNα signaling through pSTAT1 in TF1 cells. The format is cell-based. The settings on record: Homo sapiens, TF-1, 1 hour preincubation, 10 ng/mL IFNα2 for 20 minutes, p-Stat1 (Tyr701) AlphaLISA, geometric mean (SEM), read-out: IFNα inh IC50. The protocol:
TF1 cells (ATCC, CL-2003) are grown in RPMI 1640 (GIBCO) supplemented with 10% dialyzed FBS, 0.1 mg/mL Ampicillin and 2 ng/mL granulocyte macrophage colony stimulating factor. TF1 cells (100 K per well) are seeded in a 96-well poly-D-lysine coated plates in serum-free DMEM and incubated overnight at 37° C. under 5% CO2. Example 1 is serially diluted in DMSO, added to the cells, and incubated at 37° C. for 1 hour. Cells are then stimulated with 10 ng/mL IFNα2 at 37° C. for 20 minutes. After removing the medium, the cells are lysed in buffer containing Halt protease and phosphatase inhibitor cocktail (Thermo Scientific #78441) at ambient temperature for 30 minutes. The amount of p-Stat1 (Tyr701) is quantified as light emission at 615 nm using the AlphaLISA SureFire Ultra p-Stat1 (Tyr701) assay kit (Perkin Elmer #ALSU-PST1-A50K) following the vendor's recommended protocol. Percent inhibition at each inhibitor concentration is calculated and fit to the four parameter nonlinear logistic equation using Genedata Screener© to give an IC50 for the compounds tested expressed as GeoMetric means with the standard error of the mean (SEM).

In test [2] the target is T1, pseudokinase domain (JH2) of human TYK2 (Homo sapiens, UniProt P29597).
T1 construct: The pseudokinase domain (JH2) of human JAK; made in house
Nature of the test: TYK2-JH2 Tracer Binding Assay. The settings on record: TR-FRET tracer displacement, His-tagged TYK2-JH2 0.200 nM, Tracer 2.00 nM, 30 minutes. An excerpt:
The pseudokinase domain (JH2) of human JAK (Janus family of cytoplasmic tyrosine kinases) family tyrosine kinase 2 (TYK2) (Genbank NP_003322) with an N-terminal His6 tag is expressed in baculovirus and purified by HisPur Ni-NTA affinity and Superdex 200 size-exclusion chromatography. The compound prepared in Preparation 17, a conjugate of Alexa Fluor 647 dye (Thermo Fisher Scientific) and a suitable TYK2 JH2 binder, is referred to herein as “the Tracer”. A 3 fold, 10 point serial dilution of compound (Examples 1, 2, and 3) are prepared in 100% DMSO and 50 nL/well transferred to a Proxiplate-384F white plate (PerkinElmer 6008280) using acoustic liquid handling. Control wells used to determine percent inhibition contained 100% DMSO (50 nL) and either assay buffer containing the Tracer (2.00 nM final concentration) (min, low FRET) or diluted TYK2-JH2 enzyme (0.200 nM final concentration) and the Tracer (2.00 nM final concentration) (max, high FRET).
5.0 μL of His-tagged TYK2-JH2 (0.402 nM) and LanthaScreen Eu-anti-HIS Ab (4.02 nM, LifeTech, PV5597) in assay buffer (50 mM HEPES […], 10 mM magnesium chloride, 1 mM ethylene glycol-bis(β-aminoethyl ether)-N,N,N′,N′-tetraacetic acid, 0.01% Brij-35 and Milli-Q) water is added to the Proxiplate-384 plate containing the 50 nL of diluted compound and control wells. 5.0 μL of the Tracer (2.00 nM final concentration) in assay buffer is added to the plate and allowed to equilibrate for 30 minutes at ambient temperature. After 30 minutes, the plate is counted on a PerkinElmer Envision with the following settings: Excitation (340 nm), Tracer Emission (665 nm) and LanthaScreen Eu-anti-His Antibody Emission (615 nm). The ratio of Tracer Emission (665 nm) over LanthaScreen Eu-anti-His Antibody Emission (615 nm) is determined. Percent inhibition of ratio at each inhibitor concentration is calculated using the max and min control wells and fit to the four parameter nonlinear logistic equation in GeneData Screener® to give an IC50 for the compounds tested.

Test [3] relates to IL-23 signaling (STAT3 phosphorylation) in Kit225 cells. Description: IL23 pSTAT3 AlphaLISA Assay. The class given is cell-based. Conditions: 0.5 h, 1 hour preincubation, IL-23 25 ng/mL for 30 minutes, in presence of IL-2, relative IC50, geometric mean (SEM), read-out: IL-23 inh IC50. The protocol:
IL-2-dependent Kit225 cells (University of Texas MD Anderson Cancer Center) expressing endogenous IL-23 receptors are stably transduced with the Lenti STAT3 Reporter linked to firefly luciferase (SABiosciences CLS-6028L). These cells are used to monitor TYK2 activity by quantifying gene expression caused by STAT3 phosporylation following induction by IL-23 in the presence of IL-2 using AlphaLISA technology (TGR Biosciences ALSU-TST3-A50K). The cells are grown in RPMI 1640 (Gibco 22400) supplemented with 10% FBS (Invitrogen 10082), 1× Pen/Strep (Gibco 15140-122), 200 ng/ml Puromycin (Sigma P9620), and fresh 10 ng/ml recombinant human IL-2 (R&D Systems 202-IL-50).
For assay preparation, cells are dispensed into Biocoat black poly-d-lysine coated clear bottom 384-well plates (Becton Dickinson Bio-Coat 35-4640) in DMEM (Sigma D5796) at 300,000 cells/well and allowed to incubate overnight at 37° C. Compounds solubilized in DMSO are serially diluted 1:3 to produce a 10-point concentration response curve (final DMSO=0.1%). Cells are pre-incubated with Example 1 for 1 hour at 37° C., then stimulated with IL-23 (25 ng/mL final) for 30 minutes. After centrifugation at 2000 rpm for 10 minutes, cell pellets are lysed with a mixture of 1:1 lysis buffer (TGR Biosciences) and Halt Protease & Phosphatase inhibitor cocktail (Thermo Scientific 1861281) for 30 minutes. The AlphaLISA reaction is performed following the vendor's recommended protocol, and the luciferase levels are measured using an Envision plate reader (Perkin Elmer). The relative IC50 is calculated using a 4-parameter nonlinear logistic equation (GeneData Screener 13.0.5) to give an IC50 for the compounds tested expressed as GeoMetric means with the standard error of the mean (SEM).

T1 sequence (P29597 589-875 limits assumed): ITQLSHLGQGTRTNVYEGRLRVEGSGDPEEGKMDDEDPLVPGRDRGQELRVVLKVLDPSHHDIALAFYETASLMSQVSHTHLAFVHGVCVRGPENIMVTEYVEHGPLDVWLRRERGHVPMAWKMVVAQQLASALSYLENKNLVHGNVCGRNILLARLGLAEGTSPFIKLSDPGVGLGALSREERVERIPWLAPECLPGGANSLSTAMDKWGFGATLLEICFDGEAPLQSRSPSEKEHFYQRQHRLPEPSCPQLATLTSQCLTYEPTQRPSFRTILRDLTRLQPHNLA

As a reminder, the IC50 is the concentration at which inhibition is half-maximal. On to `CNc1cc(Nc2cccn(-c3ccc(C)cn3)c2=O)nc2c(C(=O)N[C@@H]3CCN(C)C3=O)cnn12` [Example 1, 7-(Methylamino)-N-[(3R)-1-methyl-2-oxo-pyrrolidin-3-yl]-5-[[1-(5-methyl-2-pyridyl)-2-oxo-3-pyridyl]amino]pyrazolo[1,5-a]pyrimidine-3-carboxamide], for which the IC50 in test [1] was 112 nM; in test [2], below 0.254 nM; in test [3], 65 nM.

Regarding `CNc1cc(Nc2cccn(-c3cccc(C)n3)c2=O)nc2c(C(=O)N[C@@H]3CCN(C)C3=O)cnn12` [Example 2, 7-(Methylamino)-N-[(3R)-1-methyl-2-oxo-pyrrolidin-3-yl]-5-[[1-(6-methyl-2-pyridyl)-2-oxo-3-pyridyl]amino]pyrazolo[1,5-a]pyrimidine-3-carboxamide], the IC50 was 206 nM in test [1], below 0.254 nM in test [2] and 101 nM in test [3].

As to `CNc1cc(Nc2cccn(-c3ccccn3)c2=O)nc2c(C(=O)N[C@@H]3CCN(C)C3=O)cnn12` [Example 3, 7-(Methylamino)-N-[(3R)-1-methyl-2-oxo-pyrrolidin-3-yl]-5-[[2-oxo-1-(2-pyridyl)-3-pyridyl]amino]pyrazolo[1,5-a]pyrimidine-3-carboxamide], the IC50 in test [1] was 106 nM; in test [2] it was below 0.254 nM; in test [3] it was 101 nM.
